Here are results for 27 compounds from US4923986A, “Derivatives of physiologically active substance K-252” (Kyowa Hakko Kogyo Co., Ltd., priority 1988, dated 1990).

Values after ≈ are worked out from the molar mass of the structure shown. Some results are limits rather than exact numbers.

One assay concerns HeLaS3 cells. Kind of assay: HeLaS3 cell growth inhibition test. Conditions: Homo sapiens, HeLa S3; HeLaS3 cells, contact for 72 hours; read-out: cell growth inhibitory activity IC50, HeLaS3. The assay is classed as cell-based. Here is the method:
(§1) Compound (I) was examined for C-kinase inhibitory activity and cell growth inhibitory activity by the following method.
(§2) MCF 7 cells (4.5×10^4 cells/ml) prepared in RPMI 1640 medium containing 10% fetal calf serum, 10 μg/ml insulin and 10^-8 M estradiol are put into wells of a 96-well microtiter plate in the amount of 0.1 ml per each well. After incubation at 37° C. overnight in CO2 -incubator, 0.05 ml each of a test sample appropriately diluted with the culture medium is added to each well. In the case of contact for 72 hours, the cells are further cultured in CO2 -incubator, and then the culture supernatant is removed and the wells are washed once with PBS(-). Thereafter, 0.1 ml of fresh medium is added to each well, followed by culturing at 37° C. for 72 hours in CO2 -incubator. After the culture supernatant is removed, 0.1 ml of the culture medium containing 0.02% Neutral Red is added to each well, followed by culturing at 37° C. for one hour in CO2 -incubator, whereby the cells are stained. Then, the culture supernatant is removed and the cells are washed once with physiological saline. The pigment is extracted with 0.001N HCl/30% ethanol and absorption is measured at 550 nm with a microplate reader. By comparing the absorption of intact cells with those of the cells treated with a test compound in known concentrations, the concentration of the test compound at which growth of the cells is inhibited 50% is calculated as IC50.
(3) HeLaS3 cell growth inhibition test:
HeLaS3 cells (3×10^4 cells/ml) prepared in MEM medium containing 10% fetal calf serum and 2 mM glutamine are put into wells of a 96-well microtiter plate in the amount of 0.1 ml per each well.
Thereafter, the test is carried out in the same manner as in (1).

Assay [1] deals with C-kinase (protein kinase C). Kind of assay: C-Kinase inhibitory activity test. The class given is biochemical. Conditions: enzyme activity inhibited 50%.
The subject of a further assay is MCF 7 cells. Kind of assay: MCF 7 cell growth inhibition test. The assay is classed as cell-based. Conditions: Homo sapiens, MCF7; MCF-7 cells, contact for 72 hours; read-out: cell growth inhibitory activity IC50, MCF-7. Here is the method:
as §1
(1) MCF 7 cell growth inhibition test:
as §2

In the next assay the test system is COLO320DM cells. Kind of assay: COLO320DM cell growth inhibition test. The assay is classed as cell-based. Conditions: Homo sapiens, COLO 320DM; COLO320DM cells, cells counted with a microcell counter; read-out: cell growth inhibitory activity IC50, COLO320DM. On the procedure:
as §2, with “After” for “MCF 7 cells (4.5×10^4 cells/ml) prepared in RPMI 1640 medium containing 10% fetal calf serum, 10 μg/ml insulin and 10^-8 M estradiol are put into wells of a 96-well microtiter plate in the amount of 0.1 ml per each well. After”, “reader.” for “reader. By comparing the absorption of intact cells with those of the cells treated with a test compound in known concentrations, the concentration of the test compound at which growth of the cells is inhibited 50% is calculated as IC50.”
(4) COLO320DM cell growth inhibition test:
Thereafter, the test is carried out in the same manner as in (1) except that the cells are counted with a microcell counter.

In general, IC50 refers to the concentration at which inhibition is half-maximal. As to `COC(=O)[C@@]1(O)C[C@H]2O[C@]1(C)n1c3ccccc3c3c4c(c5c6cc(N)ccc6n2c5c31)C(=O)NC4` (relative stereo) [Compound 9], the figures for the IC50 in the assay with HeLaS3 cells, with MCF 7 cells and with COLO320DM cells were 0.01 mg/L (≈ 0.0207 µM), 0.13 mg/L (≈ 0.269 µM) and 0.05 mg/L (≈ 0.104 µM), respectively. The “C-Kinase inhibitory activity IC50” value in assay [1] came out at 0.175 mg/L.
On the same counts, the results for `COC(=O)[C@@]1(O)C[C@H]2O[C@]1(C)n1c3ccc(N)cc3c3c4c(c5c6cc(N)ccc6n2c5c31)C(=O)NC4` (relative stereo) [Compound 10] are 0.07 mg/L (≈ 0.141 µM), 0.95 mg/L (≈ 1.91 µM), 0.1 mg/L (≈ 0.201 µM) and 0.02 mg/L.
For `COC(=O)[C@@]1(O)C[C@H]2O[C@]1(C)n1c3ccccc3c3c4c(c5c6cccc(N)c6n2c5c31)C(=O)NC4` (relative stereo) [Compound 11], the IC50 in the assay with HeLaS3 cells was found to be 0.1 mg/L (≈ 0.207 µM); with MCF 7 cells it was 0.47 mg/L (≈ 0.974 µM); in the assay on COLO320DM cells, 0.16 mg/L (≈ 0.332 µM).
Taken in the same sequence, the figures for `COC(=O)[C@@]1(O)C[C@H]2O[C@]1(C)n1c3ccccc3c3c4c(c5c6cc(N(C)C)ccc6n2c5c31)C(=O)NC4` (relative stereo) [Compound 12] were 0.17 mg/L (≈ 0.333 µM), 0.36 mg/L (≈ 0.705 µM) and 0.11 mg/L (≈ 0.215 µM).
In the case of `COC(=O)[C@@]1(O)C[C@H]2O[C@]1(C)n1c3ccc(O)cc3c3c4c(c5c6cc(O)ccc6n2c5c31)C(=O)NC4` (relative stereo) [Compound 16], the IC50 in the assay on HeLaS3 cells is 0.44 mg/L (≈ 0.881 µM); with MCF 7 cells, 0.84 mg/L (≈ 1.68 µM). Also, the “C-Kinase inhibitory activity IC50” value in assay [1] came out at 0.005 mg/L.
With `C[C@]12O[C@H](C[C@]1(O)CO)n1c3ccc(O)cc3c3c4c(c5c6ccccc6n2c5c31)CNC4=O` (relative stereo) [Compound 21], the half-maximal inhibitory concentration (IC50) in the assay on HeLaS3 cells was determined as 0.46 mg/L (≈ 1.01 µM); with MCF 7 cells it was 0.76 mg/L (≈ 1.67 µM); in the assay on COLO320DM cells it was 0.29 mg/L (≈ 0.637 µM). Besides, the “C-Kinase inhibitory activity IC50” value in assay [1] was 0.01 mg/L.
Taken in the same sequence, the figures for `C[C@]12O[C@H](C[C@]1(O)CO)n1c3ccc(N)cc3c3c4c(c5c6ccccc6n2c5c31)CNC4=O` (relative stereo) [Compound 23] were 0.15 mg/L (≈ 0.33 µM), 0.34 mg/L (≈ 0.748 µM), 0.22 mg/L (≈ 0.484 µM) and 0.038 mg/L.
For `C[C@]12O[C@H](C[C@]1(O)CO)n1c3ccc(Br)cc3c3c4c(c5c6ccccc6n2c5c31)CNC4=O` (relative stereo) [Compound 24], the IC50 is 0.06 mg/L (≈ 0.116 µM) with HeLaS3 cells, 0.19 mg/L (≈ 0.367 µM) in the assay with MCF 7 cells and 0.06 mg/L (≈ 0.116 µM) in the assay on COLO320DM cells.
For the compound `Cc1ccc2c(c1)c1c3c(c4c5ccccc5n5c4c1n2[C@H]1C[C@](O)(CO)[C@]5(C)O1)CNC3=O` (relative stereo) [Compound 26], the results for the half-inhibitory concentration (IC50) in the assay with HeLaS3 cells, with MCF 7 cells and with COLO320DM cells were 0.03 mg/L (≈ 0.0662 µM), 0.26 mg/L (≈ 0.573 µM) and 0.03 mg/L (≈ 0.0662 µM), respectively.
For the compound `C[C@]12O[C@H](C[C@]1(O)COC(=O)CCC(=O)O)n1c3ccccc3c3c4c(c5c6ccccc6n2c5c31)CNC4=O` (relative stereo) [Compound 27], the results for the IC50 with HeLaS3 cells, in the assay with MCF 7 cells and in the assay with COLO320DM cells were 0.53 mg/L (≈ 0.982 µM), over 1 mg/L and over 1 mg/L, respectively. Also, the “C-Kinase inhibitory activity IC50” value in assay [1] was found to be 0.017 mg/L.
Turning to `COC(=O)CNC[C@@]1(O)C[C@H]2O[C@]1(C)n1c3ccccc3c3c4c(c5c6ccccc6n2c5c31)C(=O)NC4` (relative stereo) [Compound 31], the values for the 50% inhibitory concentration (IC50) in the assay with HeLaS3 cells, in the assay with MCF 7 cells and with COLO320DM cells were 0.08 mg/L (≈ 0.157 µM), 0.8 mg/L (≈ 1.57 µM) and 0.31 mg/L (≈ 0.607 µM), respectively.
As for `C[C@]12O[C@H](C[C@]1(O)CNCC(=O)O)n1c3ccccc3c3c4c(c5c6ccccc6n2c5c31)CNC4=O` (relative stereo) [Compound 32], the IC50 in the assay with HeLaS3 cells was 0.22 mg/L (≈ 0.443 µM); in the assay on MCF 7 cells it was 0.74 mg/L (≈ 1.49 µM); with COLO320DM cells it was over 1 mg/L. Further, the “C-Kinase inhibitory activity IC50” value in assay [1] stood at 0.01 mg/L.
Regarding `CN(C)C=NC[C@@]1(O)C[C@H]2O[C@]1(C)n1c3ccccc3c3c4c(c5c6ccccc6n2c5c31)C(=O)NC4` (relative stereo) [Compound 33], the half-maximal inhibitory concentration (IC50) with HeLaS3 cells is 0.08 mg/L (≈ 0.162 µM); with MCF 7 cells it was 0.26 mg/L (≈ 0.527 µM); with COLO320DM cells, 1 mg/L (≈ 2.03 µM).
On the same counts, the results for `C[C@]12O[C@H](C[C@]1(O)COC1CCCCO1)n1c3ccccc3c3c4c(c5c6ccccc6n2c5c31)CNC4=O` (some centres unmarked) [Compound 28] are 0.2 mg/L (≈ 0.382 µM), 1 mg/L (≈ 1.91 µM) and 0.32 mg/L (≈ 0.611 µM).
In the case of `CC12OC(CC1(O)CNC(=O)CN)n1c3ccccc3c3c4c(c5c6ccccc6n2c5c31)CNC4=O` (centres unmarked) [Compound 34], the results for the IC50 in the assay on HeLaS3 cells, in the assay with MCF 7 cells and in the assay with COLO320DM cells were 0.03 mg/L (≈ 0.0605 µM), 0.24 mg/L (≈ 0.484 µM) and 0.17 mg/L (≈ 0.343 µM), respectively.
Taken in the same sequence, the figures for `CC12OC(CC1(O)CNC(=O)C1CCCN1)n1c3ccccc3c3c4c(c5c6ccccc6n2c5c31)CNC4=O` (centres unmarked) [Compound 35] were 0.05 mg/L (≈ 0.0934 µM), 0.27 mg/L (≈ 0.504 µM) and 0.26 mg/L (≈ 0.485 µM).
Regarding `CC12OC(CC1(O)CN1CCOCC1)n1c3ccccc3c3c4c(c5c6ccccc6n2c5c31)CNC4=O` (centres unmarked) [Compound 38], the IC50 with HeLaS3 cells was found to be 0.18 mg/L (≈ 0.354 µM); in the assay with COLO320DM cells, 0.3 mg/L (≈ 0.59 µM). Also, the “C-Kinase inhibitory activity IC50” value in assay [1] came out at 0.10 mg/L.
Regarding `CC12OC(CC1(O)CN1CCSCC1)n1c3ccccc3c3c4c(c5c6ccccc6n2c5c31)CNC4=O` (centres unmarked) [Compound 39], the IC50 was 0.14 mg/L (≈ 0.267 µM) in the assay on HeLaS3 cells, over 1 mg/L in the assay on MCF 7 cells and 0.38 mg/L (≈ 0.724 µM) in the assay on COLO320DM cells.
For the compound `CC12OC(CC1(O)CN1CCNCC1)n1c3ccccc3c3c4c(c5c6ccccc6n2c5c31)CNC4=O` (centres unmarked) [Compound 40], the values for the IC50 in the assay with HeLaS3 cells, with MCF 7 cells and with COLO320DM cells were 0.38 mg/L (≈ 0.749 µM), over 1 mg/L and over 1 mg/L, respectively.
Consider `CC12OC(CC1(O)CN1CCCCC1)n1c3ccccc3c3c4c(c5c6ccccc6n2c5c31)CNC4=O` (centres unmarked) [Compound 41], for which the concentration for half-maximal inhibition (IC50) with HeLaS3 cells was 0.06 mg/L (≈ 0.118 µM); with MCF 7 cells, over 1 mg/L; with COLO320DM cells, 0.07 mg/L (≈ 0.138 µM).
As for `CC12OC(CC1(O)C=NO)n1c3ccccc3c3c4c(c5c6ccccc6n2c5c31)CNC4=O` (centres unmarked) [Compound 50], the IC50 in the assay with HeLaS3 cells was 0.22 mg/L (≈ 0.486 µM); in the assay with COLO320DM cells, 0.17 mg/L (≈ 0.376 µM). Besides, the “C-Kinase inhibitory activity IC50” value in assay [1] worked out at 0.013 mg/L.
Regarding `CC12OC(CC1(O)CO)n1c3ccccc3c3c4c(c5c6ccccc6n2c5c31)C(=O)NC4=O` (centres unmarked) [Compound 67], the IC50 was 0.95 mg/L (≈ 2.1 µM) with HeLaS3 cells and 0.18 mg/L (≈ 0.397 µM) with COLO320DM cells. In addition, the “C-Kinase inhibitory activity IC50” value in assay [1] was 0.016 mg/L.
In the case of `COC(=O)C1(O)CC2OC1(C)n1c3ccccc3c3c4c(c5c6ccccc6n2c5c31)C(=O)N(CCN(C)C)C4=O` (centres unmarked) [Compound 69], the IC50 is 0.88 mg/L (≈ 1.59 µM) with HeLaS3 cells, over 1 mg/L in the assay on MCF 7 cells and 0.68 mg/L (≈ 1.23 µM) in the assay with COLO320DM cells.
On the same counts, the results for `CN(C)CCN1C(=O)c2c(c3c4ccccc4n4c3c3c2c2ccccc2n3C2CC(O)(CO)C4(C)O2)C1=O` (centres unmarked) [Compound 70] are 0.5 mg/L (≈ 0.953 µM), 0.45 mg/L (≈ 0.858 µM) and 0.41 mg/L (≈ 0.782 µM).
Taken in the same sequence, the figures for `CC12OC(CC1(O)CN)n1c3ccccc3c3c4c(c5c6ccccc6n2c5c31)C(=O)N(N)C4=O` (centres unmarked) [Compound 71] were over 1 mg/L, 1 mg/L (≈ 2.14 µM) and over 1 mg/L.
`CN1CC2(CC3OC2(C)n2c4ccccc4c4c5c(c6c7ccccc7n3c6c42)C(=O)NC5=O)OC1=O` (centres unmarked) [Compound 75]: the IC50 stood at 0.27 mg/L (≈ 0.548 µM) with HeLaS3 cells and 0.18 mg/L (≈ 0.365 µM) with COLO320DM cells.
Take `CC12OC(CC1(O)C(=O)NO)n1c3ccccc3c3c4c(c5c6ccccc6n2c5c31)C(=O)NC4=O` (centres unmarked) [Compound 76]: the figures for the half-maximal inhibitory concentration (IC50) in the assay with HeLaS3 cells, in the assay on MCF 7 cells and in the assay with COLO320DM cells were 0.4 mg/L (≈ 0.829 µM), 0.62 mg/L (≈ 1.29 µM) and 0.06 mg/L (≈ 0.124 µM), respectively.
